Experimental data from ChEMBL document CHEMBL1139639, “A three-residue, continuous binding epitope peptidomimetic of ShK toxin as a Kv1.3 inhibitor” (Bioorg Med Chem Lett, 2005).
pEC50: −log10 of the molar value.

Target: Potassium voltage-gated channel subfamily A member 3 (Mus musculus, UniProt P16390)
Assay: Effective concentration against murine voltage-gated potassium channel subunit Kv1.3 expressed in L929 cells using patch clamp
Type: cell-based

Sequence of Potassium voltage-gated channel subfamily A member 3 (P16390 whole entry): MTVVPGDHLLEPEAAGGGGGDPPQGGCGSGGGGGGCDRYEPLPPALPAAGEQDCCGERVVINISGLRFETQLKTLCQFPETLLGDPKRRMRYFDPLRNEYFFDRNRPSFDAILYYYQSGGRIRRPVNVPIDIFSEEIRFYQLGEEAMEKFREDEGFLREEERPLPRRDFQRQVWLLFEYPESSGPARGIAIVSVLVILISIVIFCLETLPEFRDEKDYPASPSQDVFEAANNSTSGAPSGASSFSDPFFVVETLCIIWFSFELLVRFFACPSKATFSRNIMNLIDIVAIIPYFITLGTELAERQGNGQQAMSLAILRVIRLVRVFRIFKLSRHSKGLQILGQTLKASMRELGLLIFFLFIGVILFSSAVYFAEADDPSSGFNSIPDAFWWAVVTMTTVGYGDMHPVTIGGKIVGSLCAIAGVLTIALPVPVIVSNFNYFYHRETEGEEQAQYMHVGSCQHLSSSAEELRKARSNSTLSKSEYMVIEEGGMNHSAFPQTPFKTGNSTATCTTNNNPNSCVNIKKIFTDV

pEC50: 4.12
Structure (SMILES): NCCCCNC(=O)c1ccc(CN=C(N)N)c2ccn(CCc3ccccc3)c12
